Experimental data taken from ChEMBL document CHEMBL6153174, “Design and Synthesis of Novel Deazapurine DNMT 1 Inhibitors with In Vivo Efficacy in DLBCL” (J Med Chem, 2025).

Columns and labels:
MV4-11 = assay: Antiproliferative activity against human MV4-11 cells assessed as inhibition of cell viability measured after 72 hrs by MTT assay; type: functional, cell-based; conditions: MV4-11, 72 h
[1] = target: T1, DNA (cytosine-5)-methyltransferase 3B (Homo sapiens, UniProt Q9UBC3); assay: Inhibition of DNMT3B (unknown origin) at 5 uM preincubated for 15 mins followed by substrate and [3H-SAM] addition and measured after 60 mins by microbeta analysis relative to control; conditions: time 75.0 min
[2] = target: T2, DNA (cytosine-5)-methyltransferase 1 (Homo sapiens, UniProt P26358); assay: Inhibition of DNMT1 (unknown origin) preincubated for 15 mins followed by substrate and [3H-SAM] addition and measured after 60 mins by microbeta analysis
T2 sequence (P26358 whole entry): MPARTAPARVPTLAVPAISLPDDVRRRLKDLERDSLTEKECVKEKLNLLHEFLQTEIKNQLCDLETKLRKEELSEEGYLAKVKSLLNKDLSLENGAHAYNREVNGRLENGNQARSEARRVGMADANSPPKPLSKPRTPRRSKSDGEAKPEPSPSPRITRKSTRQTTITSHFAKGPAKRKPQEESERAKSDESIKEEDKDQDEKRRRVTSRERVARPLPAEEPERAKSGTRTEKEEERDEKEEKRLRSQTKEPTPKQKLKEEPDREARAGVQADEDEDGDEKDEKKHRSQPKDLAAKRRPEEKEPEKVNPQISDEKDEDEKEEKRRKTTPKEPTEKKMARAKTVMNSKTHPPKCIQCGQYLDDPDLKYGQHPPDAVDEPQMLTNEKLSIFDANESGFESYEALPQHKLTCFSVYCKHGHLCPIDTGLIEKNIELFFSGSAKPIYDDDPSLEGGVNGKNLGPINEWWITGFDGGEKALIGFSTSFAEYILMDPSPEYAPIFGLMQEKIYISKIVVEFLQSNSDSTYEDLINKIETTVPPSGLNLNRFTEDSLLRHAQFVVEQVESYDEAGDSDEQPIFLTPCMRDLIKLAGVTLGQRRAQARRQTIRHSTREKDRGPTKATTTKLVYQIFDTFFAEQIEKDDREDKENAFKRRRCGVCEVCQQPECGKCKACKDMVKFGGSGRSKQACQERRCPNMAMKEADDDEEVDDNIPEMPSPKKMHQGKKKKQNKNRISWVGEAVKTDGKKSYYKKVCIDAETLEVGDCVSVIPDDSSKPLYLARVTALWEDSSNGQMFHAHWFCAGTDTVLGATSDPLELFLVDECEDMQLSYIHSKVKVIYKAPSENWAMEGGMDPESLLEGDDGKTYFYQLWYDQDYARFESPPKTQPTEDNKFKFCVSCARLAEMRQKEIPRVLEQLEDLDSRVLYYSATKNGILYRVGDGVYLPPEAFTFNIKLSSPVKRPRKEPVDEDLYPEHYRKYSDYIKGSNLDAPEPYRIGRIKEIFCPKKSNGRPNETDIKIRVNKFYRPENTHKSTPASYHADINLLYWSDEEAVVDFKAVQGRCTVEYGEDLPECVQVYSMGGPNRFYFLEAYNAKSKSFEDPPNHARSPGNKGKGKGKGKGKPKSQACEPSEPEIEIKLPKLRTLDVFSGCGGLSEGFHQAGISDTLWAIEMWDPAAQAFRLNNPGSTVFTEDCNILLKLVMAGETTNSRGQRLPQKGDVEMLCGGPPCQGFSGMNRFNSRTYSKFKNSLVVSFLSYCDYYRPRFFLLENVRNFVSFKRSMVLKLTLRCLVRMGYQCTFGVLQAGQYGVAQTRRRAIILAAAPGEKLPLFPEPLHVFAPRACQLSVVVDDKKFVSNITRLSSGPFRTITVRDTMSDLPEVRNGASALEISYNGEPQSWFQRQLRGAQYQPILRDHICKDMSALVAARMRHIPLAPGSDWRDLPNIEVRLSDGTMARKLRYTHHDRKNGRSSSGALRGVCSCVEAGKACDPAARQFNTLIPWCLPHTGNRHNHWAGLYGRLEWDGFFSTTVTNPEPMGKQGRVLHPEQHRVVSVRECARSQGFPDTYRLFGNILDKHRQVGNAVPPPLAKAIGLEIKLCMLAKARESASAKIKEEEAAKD

[3] = target: T2, DNA (cytosine-5)-methyltransferase 1; assay: Inhibition of DNMT1 (unknown origin) at 5 uM preincubated for 15 mins followed by substrate and [3H-SAM] addition and measured after 60 mins by microbeta analysis relative to control; conditions: time 75.0 min
[4] = target: T3, DNA (cytosine-5)-methyltransferase 3A (Homo sapiens, UniProt Q9Y6K1); assay: Inhibition of DNMT3A (unknown origin) at 5 uM preincubated for 15 mins followed by substrate and [3H-SAM] addition and measured after 60 mins by microbeta analysis relative to control; conditions: time 75.0 min
T3 sequence (Q9Y6K1 whole entry, looked up): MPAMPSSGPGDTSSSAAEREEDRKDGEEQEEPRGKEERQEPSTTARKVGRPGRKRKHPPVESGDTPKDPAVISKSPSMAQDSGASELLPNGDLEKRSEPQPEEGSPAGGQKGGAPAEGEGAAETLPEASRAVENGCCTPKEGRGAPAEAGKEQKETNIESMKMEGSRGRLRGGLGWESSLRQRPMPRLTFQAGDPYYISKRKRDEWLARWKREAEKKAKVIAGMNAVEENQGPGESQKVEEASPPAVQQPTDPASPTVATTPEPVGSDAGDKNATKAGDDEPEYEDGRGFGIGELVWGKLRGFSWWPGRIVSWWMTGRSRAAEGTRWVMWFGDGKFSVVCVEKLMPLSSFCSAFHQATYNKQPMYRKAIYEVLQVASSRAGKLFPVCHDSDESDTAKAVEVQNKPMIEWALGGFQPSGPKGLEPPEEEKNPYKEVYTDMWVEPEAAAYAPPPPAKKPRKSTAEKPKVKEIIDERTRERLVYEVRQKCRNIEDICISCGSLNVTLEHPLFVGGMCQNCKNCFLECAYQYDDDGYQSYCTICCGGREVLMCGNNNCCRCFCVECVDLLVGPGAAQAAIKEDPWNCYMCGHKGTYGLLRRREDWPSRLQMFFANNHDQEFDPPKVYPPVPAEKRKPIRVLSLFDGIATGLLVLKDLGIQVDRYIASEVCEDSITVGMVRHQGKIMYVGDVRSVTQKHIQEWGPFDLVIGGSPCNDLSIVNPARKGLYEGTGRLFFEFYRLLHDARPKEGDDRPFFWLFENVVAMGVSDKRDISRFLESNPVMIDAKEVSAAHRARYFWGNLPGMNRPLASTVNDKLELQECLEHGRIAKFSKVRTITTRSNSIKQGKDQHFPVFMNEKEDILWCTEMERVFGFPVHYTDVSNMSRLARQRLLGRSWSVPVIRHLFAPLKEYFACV

[5] = target: T4, Histone-lysine N-methyltransferase EHMT2 (Homo sapiens) (UniProt Q96KQ7); assay: Inhibition of G9a (unknown origin) at 5 uM preincubated for 15 mins followed by substrate and [3H-SAM] addition and measured after 60 mins by microbeta analysis relative to control; conditions: time 75.0 min
T4 sequence (whole entry): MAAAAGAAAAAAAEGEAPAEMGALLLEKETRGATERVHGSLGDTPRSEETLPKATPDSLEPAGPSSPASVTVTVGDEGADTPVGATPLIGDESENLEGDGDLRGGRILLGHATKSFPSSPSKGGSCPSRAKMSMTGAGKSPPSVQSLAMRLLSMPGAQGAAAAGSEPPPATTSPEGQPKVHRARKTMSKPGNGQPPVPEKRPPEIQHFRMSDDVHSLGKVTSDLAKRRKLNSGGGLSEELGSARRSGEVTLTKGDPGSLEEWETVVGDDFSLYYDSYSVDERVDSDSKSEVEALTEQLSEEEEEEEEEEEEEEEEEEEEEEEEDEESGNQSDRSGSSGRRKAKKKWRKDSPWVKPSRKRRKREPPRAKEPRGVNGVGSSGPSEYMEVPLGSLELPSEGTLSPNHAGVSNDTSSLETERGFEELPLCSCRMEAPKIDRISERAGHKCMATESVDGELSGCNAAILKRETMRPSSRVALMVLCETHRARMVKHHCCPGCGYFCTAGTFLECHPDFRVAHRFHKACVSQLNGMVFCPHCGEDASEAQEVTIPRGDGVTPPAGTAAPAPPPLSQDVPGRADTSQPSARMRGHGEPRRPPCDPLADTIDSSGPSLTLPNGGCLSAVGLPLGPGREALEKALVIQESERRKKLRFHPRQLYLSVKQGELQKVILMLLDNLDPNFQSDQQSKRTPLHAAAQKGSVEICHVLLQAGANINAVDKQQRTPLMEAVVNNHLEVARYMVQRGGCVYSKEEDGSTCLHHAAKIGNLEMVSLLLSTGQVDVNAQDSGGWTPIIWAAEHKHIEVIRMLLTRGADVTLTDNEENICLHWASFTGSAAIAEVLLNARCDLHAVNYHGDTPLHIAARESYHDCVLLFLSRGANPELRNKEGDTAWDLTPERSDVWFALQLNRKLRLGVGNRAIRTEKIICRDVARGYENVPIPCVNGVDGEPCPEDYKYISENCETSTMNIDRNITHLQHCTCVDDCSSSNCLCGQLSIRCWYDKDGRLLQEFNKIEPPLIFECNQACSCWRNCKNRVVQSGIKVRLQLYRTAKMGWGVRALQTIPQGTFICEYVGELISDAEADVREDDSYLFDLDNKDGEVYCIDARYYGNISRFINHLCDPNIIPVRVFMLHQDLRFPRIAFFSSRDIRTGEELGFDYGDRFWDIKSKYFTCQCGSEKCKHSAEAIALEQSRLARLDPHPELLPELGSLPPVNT

U-937 = assay: Antiproliferative activity against human U-937 cells assessed as inhibition of cell viability measured after 72 hrs by MTT assay; type: functional, cell-based; conditions: U-937, 72 h
[6] = target: T3, DNA (cytosine-5)-methyltransferase 3A; assay: Inhibition of DNMT3A (unknown origin) preincubated for 15 mins followed by substrate and [3H-SAM] addition and measured after 60 mins by microbeta analysis
[7] = target: T1, DNA (cytosine-5)-methyltransferase 3B; assay: Inhibition of DNMT3B (unknown origin) preincubated for 15 mins followed by substrate and [3H-SAM] addition and measured after 60 mins by microbeta analysis

Row | SMILES | IC50 (MV4-11) [µM] | inhibition [1] [%] | IC50 [2] [µM] | inhibition [3] [%] | inhibition [4] [%] | inhibition [5] [%] | IC50 (U-937) [µM] | IC50 [6] [µM] | IC50 [7] [µM]
1 | CC(C)N1CCC(Nc2nc(-c3cn[nH]c3)nc3c2ncn3CCCN2CCCC2)CC1 | > 100 | -5.5 | 55.4 | 49 | 8.6 | -2.4 | > 100 |  | 
2 | CN1CCC(Nc2nc(-c3cn[nH]c3)nc3c2ccn3CCCN2CCCC2)CC1 | > 100 | -6.9 |  | 35 | 7.2 | -2 | > 100 | 7.13 | 
3 | CN1CCC(Nc2nc(N3CCCC3)nc3c2ccn3CCCN2CCCC2)CC1 | 11 |  |  | 25 | 4.2 | 1.3 | 46.3 |  | 
4 | CN1CCC(Nc2nc(N3CCN(C)CC3)nc3c2ccn3CCCN2CCCC2)CC1 | 11.1 | 11 |  | 39 | 11 | -1.9 | 30.9 | 2.8 | 
5 | CN1CCC(Nc2nc(N3CCCN(C)CC3)nc3c2ccn3CCCN2CCCC2)CC1 | 26 |  |  | 31 |  | 2.9 | 43.3 | 6.17 | 
6 | CN1CCC(Nc2nc(-c3ccc(C(F)(F)F)cc3)nc3c2ccn3CCCN2CCCC2)CC1 | 1.16 | 1.1 |  | 42 | 9.7 |  | 0.98 |  | 
7 | Cc1ccc(-c2nc(NC3CCN(C)CC3)c3ccn(CCCN4CCCC4)c3n2)o1 | 11.8 | -2.5 |  | 43 | 16.5 | 7.2 | 43.6 | 7.95 | 14.6
8 | Cc1ccc(-c2cc(NCC3CCN(C(=O)OC(C)(C)C)CC3)c3cnn(CCCN4CCCC4)c3c2)o1 | 1.06 | 11 |  | 1.6 | 17 | 12 | 3.21 |  | 
9 | CC(C)(C)OC(=O)N1CCC(CNc2cc(-c3ccc(F)cc3)cc3c2cnn3CCCN2CCCC2)CC1 | 1.21 | 9.1 |  | 32 | 6.8 |  | 1.07 |  | 
10 | CC(C)N1CCC(Nc2nc(N3CCOCC3)nc3c2ccn3CCCN2CCCC2)CC1 | 40.9 | -9.7 |  | 6.7 | 2.6 | -1.4 | > 100 |  | 
11 | CN1CCC(Nc2nc(N3CCOCC3)nc3c2ccn3CCCN2CCCC2)CC1 | 25.9 | 15 |  | 25 | -1.8 | 7.2 | > 100 |  | 
12 | CC(C)N1CCC(Nc2nc(-c3ccccc3)nc3c2ncn3CCCN2CCCC2)CC1 | 8.85 | 0.7 | 11.9 | 7.2 | 21 | 6 | 12.4 |  | 
13 | COc1ccc(-c2cc(NCC3CCN(Cc4ccccc4)CC3)c3cnn(CCCN4CCCC4)c3c2)cc1 | 1.44 | 1.2 |  | 48 | 24 |  | 1.02 |  | 
14 | CN1CCC(Nc2nc(-c3ccc(F)cc3)nc3c2ccn3CCCN2CCCC2)CC1 | 1.66 | -6.6 |  | 63 | 13 | 0.3 | 2.45 | 4 | 18.3
15 | Cc1ccc(-c2cc(NCC3CCN(C(=O)OCc4ccccc4)CC3)c3cnn(CCCN4CCCC4)c3c2)o1 | 1.07 | 53 | > 30 | 0.36 | 12 | 9.7 | 6.95 |  | 
16 | Cc1ccc(-c2cc(NC3CCN(C(C)C)CC3)c3cnn(CCCN4CCCC4)c3c2)o1 | 11.9 | -9.4 |  | 56 | 13 | 12 | 12.2 |  | 

Row | SMILES | IC50 (MV4-11) [µM] | inhibition [1] [%] | IC50 [2] [µM] | inhibition [3] [%] | inhibition [4] [%] | inhibition [5] [%] | IC50 (U-937) [µM] | IC50 [6] [µM] | IC50 [7] [µM]
17 | Cc1ccc(-c2cc(NCC3CCN(Cc4ccccc4)CC3)c3cnn(CCCN4CCCC4)c3c2)o1 | 1 |  |  | 61 | 25 | 14 | 1.59 |  | 
18 | CN1CCC(Nc2nc(-c3ccc(F)nc3)nc3c2ccn3CCCN2CCOCC2)CC1 | 10.6 | 0.2 |  | 17 | 16 | 11 | 6.84 |  | 
19 | CN1CCC(Nc2nc(-c3ccccc3)nc3c2ccn3CCCN2CCCC2)CC1 | 6.68 | 6.6 |  | 45 | 8.6 | 1.1 | 18.2 | 7.36 | 
20 | CC(C)N1CCC(Nc2nc(N3CCCCC3)nc3c2ncn3CCCN2CCCC2)CC1 | > 100 | 9.9 |  | 12 | 4.3 | 7.6 | > 100 |  | 
21 | CN1CCC(Nc2nc(N3CCCCC3)nc3c2ccn3CCCN2CCOCC2)CC1 | 24 | -0.3 |  | 21 | 3.7 | 12 | 41 |  | 
22 | Cc1ccc(-c2cc(NCC3CCNCC3)c3cnn(CCCN4CCCC4)c3c2)o1 | 2.33 |  |  | 41 | 20 | 22 | 8.91 |  | 
23 | CC(C)N1CCC(Nc2nc(-c3ccc(F)cc3)nc3c2ncn3CCCN2CCCC2)CC1 | 10.4 | 11 | 17.4 | 3.3 | 14 | -4.9 | 12.8 |  | 
24 | Cc1ccc(-c2nc(NC3CCN(C(C)C)CC3)c3ncn(CCCN4CCCC4)c3n2)o1 | 46.1 | 2 | 23.8 | 37 | 22 | 2.5 | 55.2 |  | 
25 | CN1CCC(Nc2nc(N3CCCCC3)nc3c2ccn3CCCN2CCCC2)CC1 | 9.62 | -9.7 |  | 20 | 6.9 | 1.9 | 17.7 |  | 
26 | CC(C)N1CCC(Nc2nc(N3CCCCC3)nc3c2ccn3CCCN2CCCC2)CC1 | 12.3 | 11 |  | 13 | 0.8 | 6.5 | 14.5 |  | 
27 | CC(C)N1CCC(Nc2nc(N3CCN(C)CC3)nc3c2ccn3CCCN2CCCC2)CC1 | 2.87 | 4.3 |  | 20 | 6.6 | 3.6 | 15.6 |  | 
28 | CN1CCN(c2cc(NCC3CCN(C(=O)C4CCCC4)CC3)c3cnn(CCCN4CCOCC4)c3c2)CC1 | 8.67 |  |  |  |  |  |  |  | 
29 | CN1CCC(Nc2nc(N3CCN(C)CC3)nc3c2ccn3CCCN2CCOCC2)CC1 | 23.8 | 16 |  | 25 | 9.5 | 12 | 58.6 |  | 
30 | CN1CCN(c2cc(NCC3CCN(C(=O)OC(C)(C)C)CC3)c3cnn(CCCN4CCOCC4)c3c2)CC1 | 22.1 | 31 |  | 98 | 19 | 10 | 23.9 |  | 
31 | CC(C)N1CCC(Nc2nc(N3CCN(C)CC3)nc3c2ncn3CCCN2CCCC2)CC1 | 8.25 |  |  | 17 | -6.9 |  | 14.2 |  | 
